Biological target: T1, Adenosine receptor A1 (Rattus norvegicus, UniProt P25099)
T1 sequence (P25099 whole entry): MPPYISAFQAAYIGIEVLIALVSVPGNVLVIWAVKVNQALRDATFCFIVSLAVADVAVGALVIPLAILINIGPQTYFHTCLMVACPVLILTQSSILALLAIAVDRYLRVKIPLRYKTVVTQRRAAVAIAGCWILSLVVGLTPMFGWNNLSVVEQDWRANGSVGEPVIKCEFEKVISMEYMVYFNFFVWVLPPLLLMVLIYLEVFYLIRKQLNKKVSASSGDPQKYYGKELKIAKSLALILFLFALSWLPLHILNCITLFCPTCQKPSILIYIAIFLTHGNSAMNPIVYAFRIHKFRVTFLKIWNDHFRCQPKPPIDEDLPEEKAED
Test: Inhibition of [3H]CHA binding to Adenosine A1 receptor in rat brain membranes
Format: cell membranes

Structure (SMILES) | Ki [nM]
CCCn1c(=O)c2[nH]c(-c3ccc(Cl)cc3N)nc2n(CCC)c1=O | 4.8
Cc1nn(C)c2c(=O)[nH]c(-c3ccc(Cl)cc3N)nc12 | 310
